Measured values reported in patent US12622890B2, “Use of the active compound in the prevention or treatment of ovarian dysfunction diseases” (INSTITUTE OF BIOPHYSICS, CHINESE ACADEMY OF SCIENCES, priority 2022, dated 2026).
Where a name gives a salt, the structure may show the parent alone.

Key:
[1] = Body weight of POI model mice before modeling, after modeling and after treatment; type: in vivo; conditions: for Body weight before modeling: D 0, 100 mg/kg/d oral; for Body weight after modeling: D 7, 100 mg/kg/d oral; for Body weight after treatment: D 13, 100 mg/kg/d oral
Method: Animal model establishment: A total of 34 C57 female mice (8-week-old) were selected and intraperitoneally injected with the ratio of 120 mg/kg cyclophosphamide (SIGMA) and 30 mg/kg Busulfan (Aladdin) once a day for 1 week at the dose of 0.1 mL/10 g to establish the model of POI.
Grouping: 34 POI model mice were randomly divided into four groups: sodium fumarate (SF) treatment group (n=9), hyodeoxycholic acid (HDCA) treatment group (n=8), sodium fumarate plus hyodeoxycholic acid (mass ratio 1:1) combination (SF+HDCA) treatment group (n=8) and normal saline (Vehicle) group (n=9). Mice in the SF group were given oral administration of SF at the ratio of 100 mg/kg/d body weight, mice in the HDCA group were given oral administration of HDCA at the ratio of 100 mg/kg/d body weight, and mice in the combination group were given oral administration of SF and HDCA at the ratio of 100 mg/kg/d body weight. SF and HDCA were dissolved with 0.9% normal saline when used. Mice in the vehicle group were given the same amount of normal saline orally. All the mice were treated consecutively for 12 days.
Body weight were recorded at three time points, before modeling (at the beginning of treatment), after modeling and after treatment.
Animal model establishment: A total of 24 C57 mice (8-week-old) were selected and intraperitoneally injected with the ratio of 120 mg/kg cyclophosphamide and 30 mg/kg Busulfan once a day for 1 week at the dose of 0.1 mL/10 g to establish the model of POI.
Grouping: 24 POI model mice were randomly divided into four groups: dimethyl fumarate (DMF) treatment group (n=5), hyodeoxycholic acid (HDCA) treatment group (n=6), dimethyl fumarate plus hyodeoxycholic acid (mass ratio=1:1) combination (DMF+HDCA) treatment group (n=7) and normal saline (Vehicle) group (n=6). Mice in the DMF treatment group were orally administrated at the ratio of 100 mg/kg/d body weight. Mice in the HDCA treatment group were given oral administration of HDCA at the ratio of 100 mg/kg/d body weight, and mice in the combination group were given oral administration of DMF and HDCA at the ratio of 100 mg/kg/d body weight. Once daily, DMF and HDCA were dissolved in 0.9% normal saline when used. Mice in normal saline group were given the same amount of normal saline orally every day. The drug was administered for 12 days.
Body weight were recorded at three time points, before modeling (at the beginning of treatment, the 0th day), after modeling (the 7th day) and after treatment (the 13th day).
The body weight of POI model mice of each group was measured before modeling, after modeling and after treatment.

[2] = system: POI model mice; experiment: Estrous cycle observation by vaginal smear cytology in POI model mice; type: in vivo
[3] = system: POI mice; experiment: Serum relative reactive oxygen species (ROS) level; type: in vivo
Excerpt: (§1) Biomarkers mentioned herein, such as follicle stimulating hormone (FSH), estrogen (e.g., E2), and superoxide dismutase (SOD), malondialdehyde (MDA), relative reactive oxygen species (ROS), and lactate dehydrogenase (LDH), etc., can be detected using methods commonly known in the field. Detection methods typically cover methods that quantify the level of a biomarker in a sample (quantitative methods). Which of the following methods are suitable for qualitative and/or quantitative detection of biomarkers is generally known to those skilled in the field. Samples can be conveniently measured, for example for proteins using immunoassays such as ELISA, RIA, etc., which are commercially available.
(§2) The oxidative stress hypothesis believes that the reduction of antioxidant components in the body leads to the weakening of the ability to remove free radicals, which leads to oxidative damage of biological macromolecules, and the imbalance of cellular oxidative and antioxidant functions, which leads to oxidative stress, and then leads to disease and aging. Oxygen free radicals act on unsaturated fatty acids of lipids to generate lipid peroxides, including malondialdehyde (MDA) and so on. The antioxidant defense system of scavenging free radicals includes superoxide dismutase (SOD) and so on. Recently, oxidative stress has been reported to be associated with ovarian aging and POI in primates. Therefore, this embodiment examined the effects of DMF, HDCA, and DMF+HDCA on oxidative stress in mice with premature ovarian failure, and the results are shown in Table 5, FIGS. 9 to 12.

[4] = system: POI mice; experiment: Serum FSH level in POI mice; type: in vivo; conditions: for FSH: serum, after 12 days 100 mg/kg/d oral
Excerpt: as §1
(§3) After 12 days of administration, half of the mice in each group were sacrificed, and their blood was collected and kept still. The serum was separated after centrifugation at 4500 rpm and stored in a refrigerator at −80° C. for future use to measure levels of follicle stimulating hormone, estrogen, and the indexes of oxidative stress such as superoxide dismutase (SOD) and malondial dehyde (MDA).
as §3, with “kept in” for “kept”, “levals” for “levels”, “malondialdehyde” for “malondial dehyde”
• 1. Hormone levels in mice blood of Example 1 are measured in this embodiment.

[5] = system: POI mice; experiment: Serum malondialdehyde (MDA) level, oxidative stress; type: in vivo
Excerpt: as §1, §3
as §3, with “kept in” for “kept”, “levals” for “levels”, “malondialdehyde” for “malondial dehyde”
as §2

[6] = system: POI mice; experiment: Serum estradiol (E2) level in POI mice; type: in vivo; conditions: for E2: serum, after 12 days 100 mg/kg/d oral
Excerpt: as §1, §3
as §3, with “kept in” for “kept”, “levals” for “levels”, “malondialdehyde” for “malondial dehyde”

[7] = system: ovarian tissues; experiment: RNA transcription level sequencing of ovarian tissues, differentially expressed genes; type: in vivo, mice; conditions: ovarian tissue RNA sequencing, FC>2, Q<0.05
Method: Mice were sacrificed after various treatments, and ovarian tissues were taken, snap-frozen in liquid nitrogen, stored at −80° C., and sent to Annoroad for RNA transcription level sequencing. Bioinformatics analysis and mapping were performed on the sequencing results. […] The differential genes of the three treatment groups were intersectioned. […] These differential gene sets were then subjected to Gene Ontology function (GO) enrichment (FC>2, Q<0.05) (FIG. 16) and signaling pathway (KEGG) analysis mapping (FIG. 17), respectively.

[8] = system: POI mice; experiment: Serum superoxide dismutase (SOD) level, oxidative stress; type: in vivo
Excerpt: as §1, §3
as §3, with “kept in” for “kept”, “levals” for “levels”, “malondialdehyde” for “malondial dehyde”
as §2

[9] = system: aged mice with ovarian dysfunction; experiment: Ovulation after controlled ovarian hyperstimulation in aged mice; type: in vivo; conditions: fourteen months old mice
Method: In this Embodiment, the effect of sodium fumarate and hyodeoxy cholic acid on ovulation in aged mice with ovarian dysfunction (ovarian function decline due to natural aging) was examined. Fourteen months old mice were divided into three groups: control group (n=6), sodium fumarate group (SF, n=4), sodium fumarate and hyodeoxy cholic acid group (SF+HDCA, n=3).
Methods: After controlled ovarian hyperstimulation (48 hours after pregnant horse serum injection, followed by chorionic gonadotropin injection), the ampulla of fallopian tubes of mice was collected 14-16 hours later, and the number of oocytes obtained was recorded. […] All 4 mice in the SF group ovulated.

[10] = system: POI model mice; experiment: Estrous cycle observation by vaginal smear cytology in POI model mice; type: in vivo; remark: listed apart in the source
Method: Cytological observation of vaginal smear was performed daily.
The vagina of mice was exposed, and about 30 μl of normal saline was dripped into the vagina, gently aspirated onto the slide, and observed under the microscope. Staining was performed when necessary, fixed with 95% ethanol for 10 minutes, stained with hematoxylin in aqueous solution for 5-8 minutes, washed with running water for color separation, and then stained with eosin for 3 minutes. After drying. the slices were sealed with neutral gum.
The vagina of mice was exposed, and about 30 μl of normal saline was dripped into the vagina, gently aspirated onto the slide, and observed under the microscope. Staining was performed when necessary, stained with hematoxylin in aqueous solution for several minutes after drying, washed with running water for color separation, and then stained with alchhol eosin for several seconds. The slices were sealed with neutral gum.
During the estrous cycle, a series of histological and physiological changes occur in the reproductive and endocrine systems of mice. According to these changes, the estrous cycle can be divided into proestrous (P), estrous (E), metestrum (M) and diestrum (D). • 1. Observation of estrous cycle in mice of Example 1
After modeling and treatment, there were 6 mice left in the normal saline group, 6 mice left in the sodium fumarate treatment group, 7 mice left in the hyodeoxycholic acid group, and 7 mice left in the sodium fumarate and hyodeoxycholic acid combination group. […] The estrous cycle was divided into four periods (P: proestrous; E: estrous period; M: metestrum; D: diestrum) for vaginal smear cytological observation, the results are shown in FIG. 3.
The estrous cycle of mice was plotted according to the cytological results of vaginal smears observed for 12 consecutive days, and the results are shown in FIG. 4. The estrous cycle of mice is about 4 to 5 days, which is divided into four periods alternately. […] The estrous cycle of 4 mice was recovered in sodium fumarate treatment group. The estrous cycle of 3 mice was recovered in HDCA group. The estrous cycle of 6 mice was recovered in group treated with SF and HDCA.

[11] = system: POI mice; experiment: Serum lactate dehydrogenase (LDH) level; type: in vivo
Excerpt: as §1

[12] = Example 2, during drug administration, FIG. 5B
[13] = Example 2, FIG. 8, not statistically significant
[14] = serum, POI mice after treatment
[15] = Example 1, during drug administration, FIG. 4B

Compound: COC(=O)/C=C/C(=O)OC [DMF, dimethyl fumarate]
- Body weight before modeling ([1]; Example 2 POI mice): 19.22 ± 1.39 g
- Body weight after modeling ([1]; Example 2 POI mice): 16.54 ± 1.44 g
- Body weight after treatment ([1]; Example 2 POI mice): 16.98 ± 1.99 g
- Effect on mice with premature ovarian failure (conclusion from estrous cycle) ([2]; Example 2): preventive and therapeutic effects
- Average rate of diestrum (D) in estrous cycle [2, 12]: 55.00%
- Average rate of estrous (E) stage in estrous cycle [2, 12]: 15.00%
- Average rate of metestrum (M) in estrous cycle [2, 12]: 2.50%
- Average rate of proestrous (P) in estrous cycle [2, 12]: 27.50%
- Number of mice with estrous cycle recovered ([2]; Example 2, 12 days observation, DMF n=5, HDCA n=6, DMF and HDCA n=7): 4 mice
- ROS levels compared with the normal saline group ([3]; FIG. 11): significantly reduced
- ROS ([3]; relative ROS level in serum, POI mice after treatment): 4.610 ± 0.476
- Serum FSH level compared with the normal saline group [4, 13]: certain decreasing trend
- FSH ([4]; Example 2 POI mice): 2.39 ± 1.07 mIU/mL
- MDA activity compared with the normal saline group ([5]; FIG. 10, no significant difference): reduced to some extent
- MDA [5, 14]: 1.83 ± 3.06 nmol/mL
- Serum E2 level compared with the normal saline group [6, 13]: certain tendency to decrease
- E2 ([6]; Example 2 POI mice): 48.86 ± 11.41 pg/mL
- Number of genes down-regulated compared with the control group [7]: 5261 genes
- Number of genes up-regulated compared with the control group [7]: 1547 genes
- Activity of SOD compared with the normal saline group ([8]; FIG. 9, difference not significant): increased
- SOD [8, 14]: 14.42 ± 9.05 U/mL

Compound: O=C([O-])/C=C/C(=O)[O-].[Na+].[Na+] [SF, sodium fumarate]
- Body weight before modeling ([1]; Example 1 POI mice): 18.77 ± 0.63 g
- Body weight after modeling ([1]; Example 1 POI mice): 18.15 ± 0.92 g
- Body weight after treatment ([1]; Example 1 POI mice): 18.07 ± 1.03 g
- Weight recovery after chemotherapy ([1]; Example 1 POI mice, FIG. 2A): significantly beneficial
- Weight recovery after chemotherapy ([1]; Example 2 POI mice, FIG. 2B): significantly beneficial
- Restoration of ovulation in aged mice [9]: can restore ovulation
- Number of mice that ovulated ([9]; SF n=4, SF+HDCA n=3, FIG. 13): 4 mice
- Serum FSH level compared with the normal saline group ([4]; Example 1, FIG. 6): certain increasing trend
- FSH ([4]; Example 1 POI mice): 8.56 ± 2.59 mIU/mL
- Effect on mice with premature ovarian failure (conclusion from estrous cycle) ([10]; Example 1): preventive and therapeutic effects
- Average rate of diestrum (D) in estrous cycle [10, 15]: 20.83%
- Average rate of estrous stage (E) in estrous cycle [10, 15]: 20.83%
- Average rate of metestrum (M) in estrous cycle [10, 15]: 18.10%
- Average rate of proestrous (P) in estrous cycle [10, 15]: 40.28%
- Number of mice with estrous cycle recovered ([10]; Example 1, 12 days observation, 6 SF, 7 HDCA, 7 SF and HDCA mice left): 4 mice
- Serum E2 level compared with the normal saline group ([6]; Example 1, FIG. 7): tendency to increase
- E2 ([6]; Example 1 POI mice): 57.24 ± 4.56 pg/mL
- Activity of LDH compared with the normal saline group ([11]; FIG. 12): reduced to some extent
- LDH [11, 14]: 3136.09 ± 294.67 U/mL
